Measured values as given in patent US20250367171A1, “THERAPEUTIC OR PROPHYLACTIC AGENT FOR PERIPHERAL NEUROPATHIES” (Toray Industries, Inc., priority 2017, published 2025).

How the values were obtained:
[1] = tested on: rat oxaliplatin-induced peripheral neuropathy model; assay: Mechanical allodynia (von Frey test) in rat oxaliplatin-induced peripheral neuropathy model; format: in vivo; settings: day 18 after induction, vs vehicle group
Description: Oxaliplatin (4 mg/kg, Elplat I.V. infusion solution […]; Yakult) was administered to SD rats (7 weeks old, male; CHARLES RIVER LABORATORIES JAPAN, INC.) in a cycle of 1 week (intraperitoneally administered twice, two consecutive days per week) for 2 or 3 weeks, thereby preparing an oxaliplatin-induced peripheral neuropathy model. As a control (pseudo-induction), a 5% glucose solution (Otsuka Pharmaceutical Factory, Inc.) was administered. The initial day of administration was designated as day 0 after induction of pathological conditions. […]
Beneficial effects on mechanical allodynia were evaluated before induction of pathological conditions and on day 18 after induction of pathological conditions (before the 1st administration of compound 1). Beneficial effects on mechanical allodynia were evaluated by von Frey test. The test method was performed according to the method described in the known literature (Chaplan et al. Journal of Neuroscience Methods, 1994, Vol. 53, p. 55-63) using von Frey filaments (North Coast Medical) so that 50% response threshold was calculated.

[2] = tested on: rat cisplatin-induced peripheral neuropathy model; assay: Mechanical allodynia (von Frey test) in rat cisplatin-induced peripheral neuropathy model; format: in vivo; settings: 10 mg/kg oral single dose, day 34, 2 hours after administration, vs vehicle group
Description: Cisplatin (Wako Pure Chemical Industries, Ltd.) was intraperitoneally administered to SD rats (6 weeks old, male; CHARLES RIVER LABORATORIES JAPAN, INC.) intermittently twice a week (1 or 2 mg/kg) for 5 weeks, thereby preparing a cisplatin-induced peripheral neuropathy model. Cisplatin was dissolved in physiological saline to a concentration of 10 mg/mL and then administered. As a control (pseudo-induction), physiological saline was administered. The initial day of administration was designated as day 1 after induction of pathological conditions.
On day 34 after induction of pathological conditions, a solution containing compound 1 (10 mg/kg) or a solvent thereof (water for injection) was orally administered to rats. Groups were composed of 3 groups: a pseudo-induction and solvent administration group (sham group); a pathological condition-induced and solvent administration group (vehicle group); and a pathological condition-induced and compound 1 (10 mg/kg) administration group (compound 1 (10 mg/kg) group).
Beneficial effects on mechanical allodynia were evaluated in a manner similar to Example 5 and this evaluation was performed before and 2 hours after administration of compound 1 on day 34 after induction of pathological conditions.

[3] = tested on: fetal rat dorsal root ganglion-derived established neuronal cell line ND15; assay: Protective effect on cisplatin-induced cell damage (alamarBlue cell viability), simultaneous treatment; format: cell-based; settings: ND15 cells, cisplatin 50 μM 4 hours, simultaneous treatment with compound 1 at 0.5, 5 or 50 μM
Description: A fetal rat dorsal root ganglion-derived established neuronal cell line ND15 was cultured in 10% FBS-containing DMEM. On the next day, the cells were cultured in 10% FBS-containing DMEM containing EC23 (10 μM, Reinner) for 8 days, for differentiation into neurons.
The medium was exchanged with DMEM/F12 medium containing cisplatin (final concentration of 50 μM) followed by 4 hours of culture, thereby inducing cell injury. Compound 1 was contained in the medium (final concentration of 0.5, 5 or 50 μM) for treatment, in a manner similar to that for cisplatin. Groups were composed of 6 groups: an untreated group, a 50 μM compound 1 treatment group (the group treated with 50 μM compound 1), a cisplatin treatment group, a cisplatin and 0.5 μM compound 1 treatment group (the group treated with cisplatin and 0.5 μM compound 1), a cisplatin and 5 μM compound 1 treatment group, and a cisplatin and 50 μM compound 1 treatment group.
For measurement of cell viability, the medium was exchanged with DMEM/F12 medium containing alamarBlue (Invitrogen), followed by 2 hours of culture, and then the absorbance at wavelength of 570 nm and the absorbance at wavelength of 595 nm were measured. Cell viability was calculated using the ratio of the absorbance at wavelength of 570 nm to the absorbance at wavelength of 595 nm and the untreated group designated as 100%.

## CN(C)C1CCN(C(=O)C[C@H](O)c2nccn2C)CC1 [Compound 1, (S)-1-(4-(dimethylamino)piperidin-1-yl)-3-hydroxy-3-(1-methyl-1H-imidazol-2-yl)propan-1-one]
[1]; 3 mg/kg oral twice a day
  50% response threshold in von Frey test (mechanical allodynia): significant increase in 50% response threshold
[1]; 10 mg/kg oral twice a day
  50% response threshold in von Frey test (mechanical allodynia): significant increase in 50% response threshold
[2]
  50% response threshold in von Frey test (mechanical allodynia): significant increase in 50% response threshold
[3]
  cell viability (decrease caused by cisplatin): suppressed decrease
